Assay [1] has as its system XBP1. The experiment in a line: Cellular XBP1 splicing assay (NanoLuc luciferase reporter). It counts as cell-based. Particulars: Homo sapiens; ARPE-19 cells stably expressing XBP1-nano-luciferase; thapsigargin 150 nM, 4 hour incubation. The method, then:
ARPE-19 cells stably expressing XBP1 (a.a. 1-376) with nano-luciferase gene sequence linked so it is in frame when XBP1 is spliced, were cultured in F12 media, 10 % FBS, 0.044% sodium bicarbonate, 150 µg/ml hygromycin B and seeded for assays at 5,000 cells in 384 well plates in culture media without hygromycin B and incubated at 37° C./5% CO2. After overnight incubation test compounds were added to the cell plate in a 10-point ½ log dilution series in duplicate (final DMSO concentration 0.117 %). After further incubation of 30 minutes thapsigargin was added (final concentration 150 nM) and then another 4 hour incubation. A NanoLuc luciferase assay (Promega) was used according to the manufacturer’s instructions to detect the luciferase and luminescence measured on a luminometer (EnVision, PerkinElmer). IC50 values calculated by fitting a sigmoidal curve to percent inhibition of control of compound concentration.

The target of assay [2] is IRE1α RNase (Homo sapiens (Human), UniProt O75460). The experiment in a line: Inhibition of RNase activity of IRE1α. It counts as biochemical. Particulars: 0.325 nM enzyme, 100 nM substrate, 20 minutes at room temperature. The method, then:
The RNase reactions were performed in 384 well black ProxiPlate-384 Plus plates (PERKIN Elmer) using 50 mM Tris assay buffer with 0.5 mM MgCl2, 10 mM KCl, 0.03 % Tween, 2 mM DTT and 1% DMSO. Test compounds were prepared on the day of assay and dispensed using D300 digital dispenser as a 10-point ½ log dilution series in duplicate, normalized to a final DMSO concentration of […]. Test compounds were pre-incubated for 30 min at room temperature with IRE1α kinase (E31-11G from Signal Chem) in 2.5 µL of assay buffer. Then 2.5 µl of assay buffer containing substrate (5′ Alexa Fluor 647 - rCrArUrGrUrC rCrGrCrArGrCrGrCrArUrG - Iowa Black RQ quencher 3′) (SEQ ID NO:1) added, giving a final concentration of enzyme of 0.325 nM and of substrate of 100 nM. After 20 minutes incubation at room temperature the reactions were stopped by added 5 µL of 5 M urea, incubated at room temperature for 10 minutes and fluorescence measured on a plate reader (EnVision, PerkinElmer). IC50 values calculated by fitting a sigmoidal curve to percent inhibition of control versus compound concentration.

Assay [3] addresses IRE1α kinase (Homo sapiens (Human), UniProt O75460). As to the kind of experiment: Inhibition of kinase activity of IRE1α (ADP-Glo). It counts as biochemical. Particulars: 5 nM IRE1α kinase, 100 µM ATP, 4 hours at room temperature. The method, then:
The kinase reactions were performed in 384 well white ProxiPlate-384 Plus plates (PERKIN Elmer 6008280) using 25 mM MOPS assay buffer with 1 mM dithiothreitol, 25 mM MgCl2, 12.5 mM β-glycerophosphate, 5 mM EGTA, and 50 µg/mL BSA. Test compounds were prepared on the day of assay and dispensed using D300 digital dispenser as a 10-point ½ log dilution series in duplicate, normalized to a final DMSO concentration of 3%. Test compounds were pre-incubated for 30 min at room temperature with 10 nM IRE1α kinase (E31-11G from Signal Chem) in 2.5 µL of assay buffer and the reaction started by addition of 2.5 µL of ATP in assay buffer, to give a final ATP concentration of 100 µm and 5 nM IRE1α kinase. After 4 hours incubation at room temperature the reactions were stopped and the kinase activity determined using the ADP-Glo™ reagent from Promega, according to the manufacturer’s instructions. Luminescence was measured on a luminometer (EnVision, PerkinElmer) and IC50 values calculated by fitting a sigmoidal curve to percent inhibition of control versus Log10 of compound concentration.
(In ADP-Glo the light output rises with the ADP produced.)

IRE1α RNase, sequence (O75460 468-977): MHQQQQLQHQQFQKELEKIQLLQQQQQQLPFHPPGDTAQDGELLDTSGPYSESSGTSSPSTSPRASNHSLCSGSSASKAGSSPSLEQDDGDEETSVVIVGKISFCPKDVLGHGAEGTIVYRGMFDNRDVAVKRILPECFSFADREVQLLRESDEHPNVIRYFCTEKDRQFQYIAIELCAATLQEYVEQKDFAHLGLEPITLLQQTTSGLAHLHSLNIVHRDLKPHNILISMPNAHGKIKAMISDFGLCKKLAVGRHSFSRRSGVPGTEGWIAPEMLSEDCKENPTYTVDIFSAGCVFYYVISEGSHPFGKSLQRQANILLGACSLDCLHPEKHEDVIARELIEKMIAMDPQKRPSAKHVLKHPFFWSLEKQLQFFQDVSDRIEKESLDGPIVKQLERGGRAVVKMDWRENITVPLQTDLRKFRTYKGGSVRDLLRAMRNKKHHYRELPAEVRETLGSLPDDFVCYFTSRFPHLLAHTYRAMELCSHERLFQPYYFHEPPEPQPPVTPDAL
IRE1α kinase, sequence (O75460 468-977): as above

A word on the IC50: it is the concentration at which inhibition is half-maximal. Read a low IC50 as higher potency. As for `CC(C)n1nc(-c2cc(F)c(NS(=O)(=O)c3cc(Cl)ccc3F)cc2F)c2c(N)ncc([C@H]3CC[C@H](N4CCOCC4)CC3)c21` [Compound A20, N-(4-(4-amino-1-isopropyl-7-((1r,4r)-4-morpholinocyclohexyl)-1H-pyrazolo[4,3-c]pyridin-3-yl)-2,5-difluorophenyl)-5-chloro-2-fluorobenzenesulfonamide], the figures for the IC50 in assay [1], in assay [2] and in assay [3] were 10.3 nM, 3.5 nM and 2.3 nM, respectively. In assay [1], `CCOc1ccc(F)c(S(=O)(=O)Nc2cc(F)c(-c3nn(C(C)C)c4c3c(N)ncc4[C@H]3CC[C@H](N4CCOCC4)CC3)cc2F)c1` [Compound A15, N-(4-(4-amino-1-isopropyl-7-((1r,4r)-4-morpholinocyclohexyl)-1H-pyrazolo[4,3-c]pyridin-3-yl)-2,5-difluorophenyl)-5-ethoxy-2-fluorobenzenesulfonamide] yielded a concentration for half-maximal inhibition (IC50) of 7.2 nM.

Turning to `CCOc1ccc(F)c(S(=O)(=O)Nc2cc(F)c(-c3nn(C(C)C)c4c3c(N)ncc4[C@H]3CC[C@H](NC4CC(F)(F)C4)CC3)cc2F)c1` [Compound A7, N-(4-(4-amino-7-((1r,4r)-4-((3,3-difluorocyclobutyl)amino)cyclohexyl)-1-isopropyl-1H-pyrazolo[4,3-c]pyridin-3-yl)-2,5-difluorophenyl)-5-ethoxy-2-fluorobenzenesulfonamide], the IC50 in assay [1] stood at 6.1 nM. Take `COCCN[C@H]1CC[C@H](c2cnc(N)c3c(-c4cc(F)c(NS(=O)(=O)c5cc(OC(F)F)ccc5Cl)cc4F)nn(C(C)C)c32)CC1` [Compound A1, N-(4-(4-amino-1-isopropyl-7-((1r,4r)-4-((2-methoxyethyl)amino)cyclohexyl)-1H-pyrazolo[4,3-c]pyridin-3-yl)-2,5-difluorophenyl)-2-chloro-5-(difluoromethoxy)benzenesulfonamide]: the IC50 in assay [1] was determined as 14.5 nM; in assay [2], 2.7 nM. Regarding `Cc1ccc(F)c(S(=O)(=O)Nc2cc(F)c(-c3nn(C(C)C)c4c3c(N)ncc4[C@H]3CC[C@H](NC[C@@H](C)F)CC3)cc2F)c1` [Compound A24, N-(4-(4-amino-7-((1R,4r)-4-(((R)-2-fluoropropyl)amino)cyclohexyl)-1-isopropyl-1H-pyrazolo[4,3-c]pyridin-3-yl)-2,5-difluorophenyl)-2-fluoro-5-methylbenzenesulfonamide], in assay [3], the IC50 is 0.893 nM. Take `COCCN[C@H]1CC[C@H](c2cnc(N)c3c(-c4cc(F)c(NS(=O)(=O)c5cc(C)ccc5Cl)cc4F)nn(C(C)C)c32)CC1` [Compound A4, N-(4-(4-amino-1-isopropyl-7-((1r,4r)-4-((2-methoxyethyl)amino)cyclohexyl)-1H-pyrazolo[4,3-c]pyridin-3-yl)-2,5-difluorophenyl)-2-chloro-5-methylbenzenesulfonamide]: the IC50 in assay [1] worked out at 3.3 nM; in assay [2], 2.8 nM. `CCOc1ccc(F)c(S(=O)(=O)Nc2cc(F)c(-c3nn(C(C)C)c4c3c(N)ncc4[C@H]3CC[C@H](NCC(C)F)CC3)cc2F)c1` (stereo partly shown) [Compound A9, N-(4-(4-amino-7-((1r,4r)-4-((2-fluoropropyl)amino)cyclohexyl)-1-isopropyl-1H-pyrazolo[4,3-c]pyridin-3-yl)-2,5-difluorophenyl)-5-ethoxy-2-fluorobenzenesulfonamide] showed an IC50 in assay [1] of 7.5 nM. Turning to `[2H]C([2H])([2H])Oc1ccc(F)c(S(=O)(=O)Nc2cc(F)c(-c3nn(C(C)C)c4c3c(N)ncc4[C@H]3CC[C@H](NCCOC)CC3)cc2F)c1` [Compound A2, N-(4-(4-amino-1-isopropyl-7-((1r,4r)-4-((2-methoxyethyl)amino)cyclohexyl)-1H-pyrazolo[4,3-c]pyridin-3-yl)-2,5-difluorophenyl)-2-fluoro-5-(methoxy-d3)benzenesulfonamide], the IC50 amounted to 12.2 nM in assay [1] and 4.8 nM in assay [2]. The like results for `CC(C)n1nc(-c2cc(F)c(NS(=O)(=O)c3ccccc3F)cc2F)c2c(N)ncc([C@H]3CC[C@@H](N4CCOCC4)CC3)c21` [Compound A14, N-(4-(4-amino-1-isopropyl-7-((1s,4s)-4-morpholinocyclohexyl)-1H-pyrazolo[4,3-c]pyridin-3-yl)-2,5-difluorophenyl)-2-fluorobenzenesulfonamide] were, in that order, 1650 nM and 466 nM.

As for `CC(C)n1nc(-c2cc(F)c(NS(=O)(=O)c3cc(F)ccc3F)cc2F)c2c(N)ncc([C@H]3CC[C@H](N4CCOCC4)CC3)c21` [Compound A16, N-(4-(4-amino-1-isopropyl-7-((1r,4r)-4-morpholinocyclohexyl)-1H-pyrazolo[4,3-c]pyridin-3-yl)-2,5-difluorophenyl)-2,5-difluorobenzenesulfonamide], the IC50 in assay [1] turned out to be 26.9 nM. For the compound `COCCN[C@H]1CC[C@H](c2cnc(N)c3c(-c4cc(F)c(NS(=O)(=O)c5cc(OC(F)(F)F)ccc5Cl)cc4F)nn(C(C)C)c32)CC1` [Compound A3, N-(4-(4-amino-1-isopropyl-7-((1r,4r)-4-((2-methoxyethyl)amino)cyclohexyl)-1H-pyrazolo[4,3-c]pyridin-3-yl)-2,5-difluorophenyl)-2-chloro-5-(trifluoromethoxy)benzenesulfonamide], the IC50 was found to be 15 nM in assay [1] and 3.4 nM in assay [2]. The compound `Cc1ccc(F)c(S(=O)(=O)Nc2cc(F)c(-c3nn(C(C)C)c4c3c(N)ncc4[C@H]3CC[C@H](NC[C@H](C)F)CC3)cc2F)c1` [Compound A23, N-(4-(4-amino-7-((1S,4r)-4-(((S)-2-fluoropropyl)amino)cyclohexyl)-1-isopropyl-1H-pyrazolo[4,3-c]pyridin-3-yl)-2,5-difluorophenyl)-2-fluoro-5-methylbenzenesulfonamide] gave an IC50 in assay [3] of 1.3 nM. Consider `CCOc1ccc(F)c(S(=O)(=O)Nc2cc(F)c(-c3nn(C(C)C)c4c3c(N)ncc4[C@H]3CC[C@H](NCC(C)(C)OC)CC3)cc2F)c1` [Compound A6, N-(4-(4-amino-1-isopropyl-7-((1r,4r)-4-((2-methoxy-2-methylpropyl)amino)cyclohexyl)-1H-pyrazolo[4,3-c]pyridin-3-yl)-2,5-difluorophenyl)-5-ethoxy-2-fluorobenzenesulfonamide], for which the IC50 in assay [1] turned out to be 6.7 nM.

Turning to `COCCN[C@H]1CC[C@H](c2cnc(N)c3c(-c4cc(F)c(NS(=O)(=O)c5cc(C)ccc5F)cc4F)nn(C(C)C)c32)CC1` [Compound A5, N-(4-(4-amino-1-isopropyl-7-((1r,4r)-4-((2-methoxyethyl)amino)cyclohexyl)-1H-pyrazolo[4,3-c]pyridin-3-yl)-2,5-difluorophenyl)-2-fluoro-5-methylbenzenesulfonamide], the IC50 is 6.8 nM in assay [1] and 3.1 nM in assay [2]. For `CC(C)n1nc(-c2cc(F)c(NS(=O)(=O)Cc3ccccc3Cl)cc2F)c2c(N)ncc([C@H]3CC[C@H](N4CCOCC4)CC3)c21` [Compound A19, N-(4-(4-amino-1-isopropyl-7-((1r,4r)-4-morpholinocyclohexyl)-1H-pyrazolo[4,3-c]pyridin-3-yl)-2,5-difluorophenyl)-1-(2-chlorophenyl)methanesulfonamide], in assay [1], 11.1 nM corresponded to half-maximal inhibition (IC50).

As for `CC(C)n1nc(-c2cc(F)c(NS(=O)(=O)c3ccccc3F)cc2F)c2c(N)ncc([C@H]3CC[C@H](NCCOC(F)(F)F)CC3)c21` [Compound A8, N-(4-(4-amino-1-isopropyl-7-((1r,4r)-4-((2-(trifluoromethoxy)ethyl)amino)cyclohexyl)-1H-pyrazolo[4,3-c]pyridin-3-yl)-2,5-difluorophenyl)-2-fluorobenzenesulfonamide], the IC50 is 39.3 nM in assay [1] and 17.9 nM in assay [2].

These data come from patent publication US20230331719A1, “Pyrazolopyridine Compounds and Methods of Inhibiting IRE1 Using Same” (OPTIKIRA, LLC, priority 2020, published 2023).
